Source: patent US11325899B2, “Benzofurane and benzothiophene derivatives as PGE2 receptor modulators” (IDORSIA PHARMACEUTICALS LTD, priority 2017, dated 2022)

Tests used:
[1] = molecular target: T1, PTGER4 (EP4) (Homo sapiens, UniProt P35408); test: hEP4 b-arrestin assay (PathHunter HEK 293 PTGER4 b-arrestin cells); format: cell-based; conditions: antagonistic activity, beta-arrestin assay; read-out: hEP4 b-arr IC50
T1 construct: host or cells: HEK 293 (PathHunter PTGER4 b-arrestin cell line)
Description: (§1) The antagonistic activities of the compounds of formula (I) on the EP2 and EP4 receptors are determined in accordance with the following experimental method.
(§2) The assay is using the PathHunter™ HEK 293 PTGER2 and PTGER4 b-arrestin cell lines from DiscoverX. The system is based on the Enzyme Fragment Complementation Technology. Two complementing fragments of the b-galactosidase enzyme are expressed within stably transfected cells. The larger portion of b-gal, termed EA for Enzyme Acceptor, is fused to the C-terminus of b-arrestin 2. The smaller fragment, termed ProLink™ tag, is fused to PTGER2 (EP2) or PTRGER4 (EP4) at the C-terminus. Upon activation, b-arrestin is recruited which forces the interaction of ProLink and EA, allowing complementation of the two fragments of b-gal and the formation of a functional enzyme which is capable of hydrolysing the substrate and generating a chemiluminescent signal.
(§3) The HEK 293 PTGER4 b-arrestin cells (DiscoverX 93-030-4C1) are detached from culture dishes with a cell dissociation buffer (Invitrogen, 13151-014), and collected in growing medium (GM: DMEM+Glutamax-I (Invitrogen 32430)/10% FCS, 1% Penicilin/streptomycin). 5000 cells per well of a 384 well plate (white with white bottom Greiner 781080) are seeded in 20 ul per well of GM. Plate is incubated at 37° C., 5% C02 for 24 hours.
(§4) Stock solutions of test compounds are made at a concentration of 10 mM in DMSO, and serially diluted in DMSO to concentrations required for inhibition dose response curves (tested concentration range 10 μM-2 nM or 1 μM-0.2 nM).
PGE2 (Cayman 14010, stock solution: 100 uM in DMSO) is used as agonist at 20 nM final concentration, corresponding to EC80.
Five microliters of diluted compounds are transferred into the assay plate. Plate is pre-incubated 15 minutes at 37° C. Then five microliters of PGE2 (final conc. 20 nM) are transferred into the assay plate. Plate is incubated 120 minutes at 37° C.
(§5) PathHunter Glo Detection Kit components are thawed and mix according to manufacturer's instructions: 1 part Galacton Star Substrate with 5 parts Emerald II™ Solution, and 19 parts of PathHunter Cell Assay Buffer, respectively. Twelve μl of reagent are transferred to the assay plate and incubate for 1 hour at room temperature in the dark. Luminescence counts are read on a BMG Fluostar Optima reader according to manufacturer's instructions.
(§6) For each compound concentration calculate of the percentage of activity compared to DMSO control value as average±STDEV. (each concentration is measured in duplicate)
(§7) IC50 values and curves are generated with XLfit software (IDBS) using Dose-Response One Site model 203. When compounds were measured multiple times, mean values are given.

[2] = molecular target: T2, PTGER2 (EP2) (Homo sapiens, UniProt P43116); test: hEP2 b-arrestin assay (PathHunter HEK 293 PTGER2 b-arrestin cells); format: cell-based; conditions: antagonistic activity, beta-arrestin assay; read-out: hEP2 b-arr IC50
T2 construct: host or cells: HEK 293 (PathHunter PTGER2 b-arrestin cell line)
T2 sequence (P43116 whole entry): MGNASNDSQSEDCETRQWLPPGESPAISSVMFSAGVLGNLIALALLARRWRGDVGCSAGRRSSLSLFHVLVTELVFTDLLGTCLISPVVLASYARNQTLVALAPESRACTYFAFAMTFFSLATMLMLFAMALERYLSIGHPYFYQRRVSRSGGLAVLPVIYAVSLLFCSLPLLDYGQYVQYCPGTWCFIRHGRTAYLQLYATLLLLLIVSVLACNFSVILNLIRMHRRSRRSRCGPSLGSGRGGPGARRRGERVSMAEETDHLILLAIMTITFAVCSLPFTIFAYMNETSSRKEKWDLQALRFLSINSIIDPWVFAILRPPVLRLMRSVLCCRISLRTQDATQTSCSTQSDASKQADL
Description: as §1, §2
as §3, with “PTGER2” for “PTGER4”, “93-021-4C1)” for “93-030-4C1)”
as §4
PGE2 (Cayman 14010, stock solution: 10 mM in DMSO) is used as agonist at 5 μM final concentration, corresponding to EC80.
Five microliters of diluted compounds are transferred into the assay plate. Plate is pre-incubated 15 minutes at 37° C. Then five microliters of PGE2 (final conc. 5 μM) are transferred into the assay plate. Plate is incubated 120 minutes at 37° C.
as §5, §6, §7

T1 sequence (P35408 whole entry): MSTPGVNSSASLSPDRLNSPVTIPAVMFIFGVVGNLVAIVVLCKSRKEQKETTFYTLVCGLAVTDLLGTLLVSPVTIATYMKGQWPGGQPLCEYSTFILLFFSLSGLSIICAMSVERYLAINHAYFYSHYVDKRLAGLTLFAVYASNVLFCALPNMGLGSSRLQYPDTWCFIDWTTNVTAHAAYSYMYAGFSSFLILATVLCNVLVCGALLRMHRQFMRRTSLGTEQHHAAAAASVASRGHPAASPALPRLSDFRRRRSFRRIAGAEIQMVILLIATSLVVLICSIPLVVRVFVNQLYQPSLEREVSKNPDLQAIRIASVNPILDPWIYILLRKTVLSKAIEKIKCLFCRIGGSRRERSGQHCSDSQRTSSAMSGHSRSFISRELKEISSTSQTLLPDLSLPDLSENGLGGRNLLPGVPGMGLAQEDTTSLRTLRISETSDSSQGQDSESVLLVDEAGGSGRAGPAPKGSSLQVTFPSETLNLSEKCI

Row | Compound | IC50 [1] | IC50 [2]
1 | CSc1cc(-c2cc(NCCc3c(C#N)sc4ccccc34)ncn2)ccc1C(=O)O [Example 173, 4-{6-[2-(2-Cyano-benzo[b]thiophen-3-yl)-ethylamino]-pyrimidin-4-yl}-2-methylsulfanyl-benzoic acid] | 757 nM | 8 nM
2 | COc1cc(-c2cc(NCCc3c(C#N)sc4ccccc34)ncn2)ccc1CC(=O)O [Example 174, (4-{6-[2-(2-Cyano-benzo[b]thiophen-3-yl)-ethylamino]-pyrimidin-4-yl}-2-methoxy-phenyl)-acetic acid] | 723 nM | 135 nM
3 | Cc1sc2c(C)cc(F)cc2c1CCNc1cc(-c2ccc(-c3noc(=O)[nH]3)cc2)ncn1 [Example 177, 3-(4-{6-[2-(5-Fluoro-2,7-dimethyl-benzo[b]thiophen-3-yl)-ethylamino]-pyrimidin-4-yl}-phenyl)-[1,2,4]oxadiazol-5(4H)-one [tautomeric form: 3-(4-{6-[2-(5-Fluoro-2,7-dimethyl-benzo[b]thiophen-3-yl)-ethylamino]-pyrimidin-4-yl}-phenyl)-[1,2,4]oxadiazol-5-ol]] | 212 nM | 47 nM
4 | Cc1sc2c(C)cc(F)cc2c1CCNc1cc(-c2ccc(C(N)=O)cc2)ncn1 [Example 178, 4-{6-[2-(5-Fluoro-2,7-dimethyl-benzo[b]thiophen-3-yl)-ethylamino]-pyrimidin-4-yl}-benzamide] | 331 nM | 48 nM
5 | CCSc1cc(-c2cc(NCCc3c(C)sc4c(C)cc(F)cc34)ncn2)ccc1C(=O)O [Example 179, 2-Ethylsulfanyl-4-{6-[2-(5-fluoro-2,7-dimethyl-benzo[b]thiophen-3-yl)-ethylamino]-pyrimidin-4-yl}-benzoic acid] | 184 nM | 8 nM
6 | Cc1sc2c(C)cc(F)cc2c1CCNc1cc(-c2ccc(-c3c(O)c(=O)c3=O)cc2)ncn1 [Example 180, 3-(4-{6-[2-(5-Fluoro-2,7-dimethyl-benzo[b]thiophen-3-yl)-ethylamino]-pyrimidin-4-yl}-phenyl)-4-hydroxy-cyclobut-3-ene-1,2-dione] | 120 nM | 20 nM
7 | CCc1cc(-c2cc(NCCc3c(C)sc4c(C)cc(F)cc34)ncn2)ccc1C(=O)OC [Example 181, 2-Ethyl-4-{6-[2-(5-fluoro-2,7-dimethyl-benzo[b]thiophen-3-yl)-ethylamino]-pyrimidin-4-yl}-benzoic acid methyl ester] | 423 nM | 126 nM
8 | Cc1sc2c(C)cc(F)cc2c1CCNc1cc(-c2ccc3[nH]ccc3c2)ncn1 [Example 183, [2-(5-Fluoro-2,7-dimethyl-benzo[b]thiophen-3-yl)-ethyl]-[6-(1H-indol-5-yl)-pyrimidin-4-yl]-amine] | 210 nM | 40 nM
9 | CCc1cc(-c2cc(NCCc3c(C)sc4c(C)cc(F)cc34)ncn2)ccc1CC(=O)O [Example 185, (2-Ethyl-4-{6-[2-(5-fluoro-2,7-dimethyl-benzo[b]thiophen-3-yl)-ethylamino]-pyrimidin-4-yl}-phenyl)-acetic acid] | 134 nM | 50 nM
10 | Cc1sc2c(C)cc(F)cc2c1CCNc1cc(-c2ccc(CC(=O)O)c(OC(F)(F)F)c2)ncn1 [Example 187, (4-{6-[2-(5-Fluoro-2,7-dimethyl-benzo[b]thiophen-3-yl)-ethylamino]-pyrimidin-4-yl}-2-trifluoromethoxy-phenyl)-acetic acid] | 425 nM | 79 nM
11 | Cc1sc2c(C)cc(F)cc2c1CCNc1cc(-c2ccc(NC=O)cc2)ncn1 [Example 188, N-(4-{6-[2-(5-Fluoro-2,7-dimethyl-benzo[b]thiophen-3-yl)-ethylamino]-pyrimidin-4-yl}-phenyl)-formamide] | 694 nM | 98 nM
12 | CCOc1cc(-c2cc(NCCc3c(C)sc4c(C)cc(F)cc34)ncn2)ccc1NC=O [Example 191, N-(2-Ethoxy-4-{6-[2-(5-fluoro-2,7-dimethyl-benzo[b]thiophen-3-yl)-ethylamino]-pyrimidin-4-yl}-phenyl)-formamide] | 135 nM | 45 nM
13 | Cc1sc2c(C)cc(F)cc2c1CCNc1cc(-c2ccc(CC(=O)O)c(OC(C)C)c2)ncn1 [Example 192, (4-{6-[2-(5-Fluoro-2,7-dimethyl-benzo[b]thiophen-3-yl)-ethylamino]-pyrimidin-4-yl}-2-isopropoxy-phenyl)-acetic acid] | 261 nM | 72 nM
14 | CCc1cc(-c2cc(NCCc3c(C)sc4c(C)cc(F)cc34)ncn2)ccc1C(=O)O [Example 193, 2-Ethyl-4-{6-[2-(5-fluoro-2,7-dimethyl-benzo[b]thiophen-3-yl)-ethylamino]-pyrimidin-4-yl}-benzoic acid] | 667 nM | 18 nM
15 | CCc1cc(-c2cc(NCCc3c(C)sc4c(C)cc(F)cc34)ncn2)sc1CC(=O)O [Example 197, (3-Ethyl-5-{6-[2-(5-fluoro-2,7-dimethyl-benzo[b]thiophen-3-yl)-ethylamino]-pyrimidin-4-yl}-thiophen-2-yl)-acetic acid] | 146 nM | 85 nM
16 | Cc1cc(-c2cc(NCCc3c(C)sc4c(C)cc(F)cc34)ncn2)cc(Cl)c1CC(=O)O [Example 198, (2-Chloro-4-{6-[2-(5-fluoro-2,7-dimethyl-benzo[b]thiophen-3-yl)-ethylamino]-pyrimidin-4-yl}-6-methyl-phenyl)-acetic acid] | 175 nM | 77 nM
17 | CCOc1cc(-c2cc(NCCc3c(C)sc4c(C)cc(F)cc34)ncn2)[nH]c1C(=O)O [Example 199, 3-Ethoxy-5-{6-[2-(5-fluoro-2,7-dimethyl-benzo[b]thiophen-3-yl)-ethylamino]-pyrimidin-4-yl}-1 H-pyrrole-2-carboxylic acid] | 363 nM | 5 nM
18 | CCn1cc(-c2cc(NCCc3c(C)sc4c(C)cc(F)cc34)ncn2)cc1C(=O)O [Example 200, 1-Ethyl-4-{6-[2-(5-fluoro-2,7-dimethyl-benzo[b]thiophen-3-yl)-ethylamino]-pyrimidin-4-yl}-1H-pyrrole-2-carboxylic acid] | 550 nM | 63 nM
19 | CCCn1cc(-c2cc(NCCc3c(C)sc4c(C)cc(F)cc34)ncn2)cc1C(=O)O [Example 201, 4-{6-[2-(5-Fluoro-2,7-dimethyl-benzo[b]thiophen-3-yl)-ethylamino]-pyrimidin-4-yl}-1-propyl-1H-pyrrole-2-carboxylic acid] | 351 nM | 34 nM
20 | COc1cc(-c2cc(NCCc3c(C)sc4c(C)cc(F)cc34)ncn2)ccc1-c1cc(O)no1 [Example 203, 5-(4-{6-[2-(5-Fluoro-2,7-dimethyl-benzo[b]thiophen-3-yl)-ethylamino]-pyrimidin-4-yl}-2-methoxy-phenyl)-isoxazol-3-ol [tautomeric form: 5-(4-(6-((2-(5-fluoro-2,7-dimethylbenzo[b]thiophen-3-yl)ethyl)amino)pyrimidin-4-yl)-2-methoxyphenyl)isoxazol-3(2H)-one]] | 239 nM | 16 nM
21 | Cc1sc2c(C)cc(F)cc2c1CCNc1cc(-c2ccc(/C=C/C(=O)O)cc2)ncn1 [Example 204, (E)-3-(4-{6-[2-(5-Fluoro-2,7-dimethyl-benzo[b]thiophen-3-yl)-ethylamino]-pyrimidin-4-yl}-phenyl)-acrylic acid] | 1030 nM | 108 nM
22 | Cc1[nH]c(-c2cc(NCCc3c(C)sc4c(C)cc(F)cc34)ncn2)cc1C(=O)O [Example 205, 5-{6-[2-(5-Fluoro-2,7-dimethyl-benzo[b]thiophen-3-yl)-ethylamino]-pyrimidin-4-yl}-2-methyl-1 H-pyrrole-3-carboxylic acid] | 771 nM | 74 nM
